These results are taken from patent US11400106B2, “Methods for inhibiting microbe growth” (priority 2018, dated 2022).

Like-named read-outs stand apart in the source and are kept apart here.

Test [1] deals with E. coli. Nature of the test: Checkerboard microdilution with sodium bicarbonate against E. coli. Type of test: cell-based, Escherichia coli. The method, then:
(§1) In the following experiments, bacterial cells were cultured in 96-well microtiter plates in cation-adjusted Mueller-Hinton Broth (MHB) for 18 h at 37° C. The main strains used were E. coli (K-12 BW25113) (placed in stationary incubator) and S. aureus (Newman Strain) (incubated at 250 r.p.m). Knockout strains (ΔtolcC and ΔychM) were used from the Keio knockout collection (Baba et al., Construction of Escherichia coli K-12 in-frame, single-gene knockout mutants: the Keio collection. Mol Syst Biol 2, 2006 0008, doi:10.1038/msb4100050 (2006)). For MIC determination and checkerboard analyses, Clinical & Laboratory Standards Institute (CLSI) protocol was used. […] DiSC3 loading of S. aureus cells was performed as previously described (Farha et al., Collapsing the proton motive force to identify synergistic combinations against Staphylococcus aureus. Chemistry & biology 20, 1168-1178, doi:10.1016/j.chembiol.2013.07.006 (2013)). CCCP concentration of 20 μM was used. pH adjustments were made by addition of HCl or NaOH. INT assay and ATP bioluminescence assays were performed as previously described (Farha et al., Collapsing the proton motive force to identify synergistic combinations against Staphylococcus aureus. Chemistry & biology 20, 1168-1178, doi:10.1016/j.chembiol.2013.07.006 (2013)). For chemical-genomic studies, the Keio library was grown overnight in cation-adjusted MHB broth, in 384-well plates. From these, treatment plates (25 mM sodium bicarbonate, or a sterile water control) were inoculated and grown for 15 hours at 37° C., in a stationary incubator. Data was normalized according to Mangat et al (Mangat et al., Rank ordering plate data facilitates data visualization and normalization in high-throughput screening. J Biomol Screen 19, 1314-1320, doi:10.1177/1087057114534298 (2014)), with gene products and GO terms mined from EcoCyc. The GFP promoter library (Keseler et al., EcoCyc: fusing model organism databases with systems biology. Nucleic Acids Res 41, D605-612, doi:10.1093/nar/gks1027 (2013)) was grown for 18 hours at ambient temperature with the same inoculation strategy as with the Keio collection. The analysis pipeline of Zaslaver et al (Zaslaver et al., A comprehensive library of fluorescent transcriptional reporters for Escherichia coli. Nat Methods 3, 623-628, doi:10.1038/nmeth895 (2006)) was used to generate maps of promoter activity, from which lists of promoters with increased or decreased activity were compiled.
(§2) The effect of sodium bicarbonate on the activity of various antibacterial agents was investigated. Clinical isolates of various bacteria were obtained from the American Type Culture Collection (“ATCC”) and the International Health Management Associates (“IHMA”). Fractional inhibitory concentration indices (FICIs) were determined by setting up standard checkerboard broth microdilution assays in 96-well microtiter plates with serially diluted 8 (or 10) concentrations of each drug (sodium bicarbonate and the antibacterial agent). The protocol for checkerboard analyses was based on the CLSI guidelines. Plates were incubated at 37° C. for 18 hours, and optical density was read at 600 nm. At least 3 replicates were done for each query compound.
(§3) The FIC index (FICI) is the sum of the two FICs. Chemical-chemical interactions with ΣFIC of less or equal to 0.5 were deemed synergistic.
(§4) As validation, three of the antibiotic agents were further tested with checkerboard analyses. Checkerboard broth microdilution assays were set up in 96-well microtiter plates with serially diluted 8 (or 10) concentrations of each compound (sodium bicarbonate and the antibiotic). The protocol for checkerboard analyses was based on the CLSI guidelines. Plates were incubated at 37° C. for 18 hours, and optical density was read at 600 nm. At least 3 replicates were done for each query compound.
In general terms: In broth dilution the organism is exposed to a series of concentrations in liquid medium.

For test [2], the system named is S. aureus. The experiment in a line: microbe, parasite or virus in culture. The conditions noted are these: for effect of 25 mM sodium bicarbonate on antibacterial activity: S. aureus, result in words; for MIC: Staphylococcus aureus, 18 h, read-out: MIC, S. aureus, MHB−.
For test [3], the system named is S. aureus. Nature of the test: Checkerboard microdilution with nigericin. Type of test: cell-based, Staphylococcus aureus. An excerpt:
Shown are microdilution checkerboard analyses, where the extent of inhibition is shown as a heat plot, such that the darkest checkerboard square represents full bacterial growth.

In test [4] the test system is E. coli. The experiment in a line: microbe, parasite or virus in culture. Type of test: cell-based, Escherichia coli. The note with it: for MIC: Escherichia coli, 18 h, MHB in the absence of sodium bicarbonate, read-out: MIC, E. coli, MHB−.
In test [5] the test system is P. aeruginosa. Nature of the test: Susceptibility testing of P. aeruginosa clinical isolates (n=92). Type of test: cell-based, Pseudomonas aeruginosa. The conditions noted are these: P. aeruginosa (n=92); comparators in the absence of bicarbonate. The method, then: (§5) This study included one hundred (n=100) clinical isolates of methicillin-resistant Staphylococcus aureus (MRSA) and ninety-two (n=92) clinical isolates of P. aeruginosa. All samples were collected from patients at Hamilton Health Sciences hospitals (Hamilton, Ontario, Canada). Isolates, regardless of site of infection, were selected for study if they were resistant to three or more antibiotics. The isolates were cultured on plates and subsequently tested for antimicrobial susceptibility. Initial culture and antibiotic susceptibility testing were performed by Hamilton General Hospital General Microbiology Laboratory using a VITEK 2 Automated System and its Advanced Expert System (bioMerieux) and were compliant with Clinical & Laboratory Standards Institute (CLSI) antibiotic susceptibility testing formulations. Both quantitative minimum inhibitory concentration (MIC) and CLSI breakpoints were reported for each antibiotic. Additionally, a total of 7 conjunctival-sourced ocular isolates of Streptococcus pneumoniae collected by the International Health Management Associates (IHMA) from various locations in the United States were used in the study.
(§6) Antimicrobial sensitivity of the pathogenic strains was determined in compliance with the CLSI protocol. Mueller-Hinton agar plates were used to streak out bacterial species and the direct colony suspension method for inoculum preparation was used to make a suspension of the organism in saline to the density of a McFarland 0.5 turbidity standard. Cation-adjusted Mueller-Hinton broth (CA-MHB) manufactured according to ISO technical standard was used for susceptibility testing in standard 96-well microdilution plates. All antibiotics were purchased as powders from Sigma-Aldrich Canada Co. (Oakville, Canada) and dissolved in appropriate solvent to provide stock solutions as instructed by the manufacturer. Desired test antibiotic solutions were diluted in solvent at a highest test concentration resulting in 256 μg/mL. Where sodium bicarbonate was used, aqueous sterile-filtered sodium bicarbonate solution (7.5% stock) from Sigma-Aldrich Canada Co. (Oakville, Canada) was diluted to the desired concentration in CAMHB. Plates were incubated for 18 hours at 37° C. and read at 600 nm on a Tecan, infinite M1000 PRO plate reader. In accordance with CLSI, methods with appropriate medium supplements for fastidious streptococci (2.5% lysed horse blood, Innovative Research, Inc., Novi, Mich.) were used. […] All MICs in the study were conducted in duplicate.

For test [6], the system named is methicillin-resistant Staphylococcus aureus (MRSA). Nature of the test: Susceptibility testing of MRSA clinical isolates (n=100). The format is cell-based. The conditions noted are these: MRSA (n=100); comparators in the absence of bicarbonate. The method, then:
as §5, §6

In test [7] the test system is S. aureus. The experiment in a line: Checkerboard microdilution with sodium bicarbonate against S. aureus. The format is cell-based, Staphylococcus aureus. The method, then: as §1, §2, §3, §4

With `C[C@@H]1O[C@@H]1P(=O)(O)O` [Fosfomycin], in test [1], the “interaction with sodium bicarbonate (checkerboard)” value (from here on “interaction with sodium bicarbonate”) is listed as “suppressed”. Besides, in test [2], the “MIC, S. aureus, MHB+” value stood at 64; the “effect of 25 mM sodium bicarbonate on antibacterial activity” value (from here on “effect of 25 mM sodium bicarbonate”) is “suppressed”; the MIC stood at 16 µg/mL. Also, in test [3], the “interaction with nigericin (checkerboard)” value is listed as “antagonistic interactions”. In test [4], the “effect of 25 mM sodium bicarbonate” value was “suppressed” and the MIC stood at 4 µg/mL.
As for `COc1c(N2C[C@@H]3CCCN[C@@H]3C2)c(F)cc2c(=O)c(C(=O)O)cn(C3CC3)c12` [Moxifloxacin], the “MIC90 comparison of topical ophthalmic antibiotics” value in test [5] and in test [6] was “resistance” each time. Moreover, the MIC in test [2] is 0.125 µg/mL; in test [4], 0.0313 µg/mL.
`CO[C@@H]1[C@@H](OC(N)=O)[C@@H](O)[C@H](Oc2ccc3c(O)c(NC(=O)c4ccc(O)c(CC=C(C)C)c4)c(=O)oc3c2C)OC1(C)C` [Novobiocin]: in test [1], the “interaction with sodium bicarbonate” value was “suppressed”. Moreover, in test [2], the “MIC, S. aureus, MHB+” value is recorded as 0.5; the “effect of 25 mM sodium bicarbonate” value is “suppressed”; the MIC is 0.031 µg/mL. In addition, the “interaction with nigericin (checkerboard)” value in test [3] was “antagonistic interactions”. Moreover, in test [4], the “effect of 25 mM sodium bicarbonate” value was “suppressed” and the MIC worked out at 32 µg/mL.
On to `[H]/N=C(/N)N[C@H]1[C@H](O)[C@@H](O)[C@H](O[C@@H]2O[C@@H](C)[C@](O)(C=O)[C@H]2O[C@@H]2O[C@@H](CO)[C@H](O)[C@@H](O)[C@@H]2NC)[C@@H](N/C(N)=N\[H])[C@@H]1O` [Streptomycin], for which the “interaction with sodium bicarbonate” value in test [1] and in test [7] was “synergistic interactions” in each case. Besides, in test [2], the “MIC, S. aureus, MHB+” value was 0.5 μg of antimicrobial agent/mL of buffer. The results for the MIC in test [2] and in test [4] (antibiotic agents) were 2 µg/mL and 0.5 µg/mL, respectively. The “MIC, E. coli, MHB+” value in test [4] is 0.12 μg of antimicrobial agent/mL of buffer.
